Assay results as given in patent US10647700B2, “EZH2 inhibitor and use thereof” (TARAPEUTICS SCIENCE INC., priority 2017, dated 2020).

Molecular target: EZH2 (Homo sapiens (Human), UniProt Q15910)
Test: E-cadherin promoter luciferase reporter gene primary screening in 293T cells
Format: cell-based
Conditions: 293T cells treated for 24 hours, Dual-Glo luciferase; for 1 μM relative fluorescence intensity: compound 1 μM; for 10 μM relative fluorescence intensity: compound 10 μM; for 3 μM relative fluorescence intensity: compound 3 μM
Source text: EZH2 suppresses the expression of downstream E-cadherin, and upon EZH2 suppression, expression of E-cadherin will increase. Based on such principle, a reporter gene expression vector was constructed using luciferase.
The amplified fragments after PCR and the PGL4.1 vector (purchased from TAKARA, Japan) were respectively subjected to enzyme digestion with SacI and BglII (purchased from TAKARA, Japan), and then purified with PCR cleanup kit (Axygen PCR cleanup kit). Subsequently, the purified and enzyme-digested PCR products was ligated to the purified and enzyme-digested PGL4.1 vector using ligase solution I (DNA Ligation Kit Ver.2.1, purchased from TAKARA, Japan), and subjected to transformation. Single clones were then screened out and subjected to sequencing, and the obtained positive plasmid containing promoter fragments of Ecadherin was named E-cadherin RE-PGL4.1.
Meanwhile, a Renilla fluorescent vector was constructed using PCDNA4.1 (purchased from Thermofisher, USA) as the template to amplify the fragment of CMV promoter. After enzymatic digestion of the amplified CMV sequences and pGL4.70 vector (purchased from Promega, USA) with KpnI and XhoI (purchased from Promega, USA), purification was conducted with PCR cleanup kit (Axygen PCR cleanup kit). Then the enzyme-digested PCR product was ligated to the enzyme-digested PGL4.70 vector using ligase solution I (DNA Ligation Kit Ver.2.1, purchased from TAKARA, Japan) and the resultant was subjected to transformation. Subsequently single clones were screened and subjected to sequencing, and the obtained plasmid that contained CMV sequence was named as Plasmid Renilla luciferase-pGL4.70. Said plasmid utilized CMV promoter to achieve high expression of Renilla luciferase, which served as the control fluorescence for the primary screening system.
The cells were firstly added with 20 μL Dual-Glo® Luciferase Assay Reagent, then incubated under room temperature for 10 minutes, and read on microplate reader Spectramax i3 (Molecular Devices, USA) to obtain the data of primary screening, which is shown in Table 1.

Sequence of EZH2 (Q15910 whole entry): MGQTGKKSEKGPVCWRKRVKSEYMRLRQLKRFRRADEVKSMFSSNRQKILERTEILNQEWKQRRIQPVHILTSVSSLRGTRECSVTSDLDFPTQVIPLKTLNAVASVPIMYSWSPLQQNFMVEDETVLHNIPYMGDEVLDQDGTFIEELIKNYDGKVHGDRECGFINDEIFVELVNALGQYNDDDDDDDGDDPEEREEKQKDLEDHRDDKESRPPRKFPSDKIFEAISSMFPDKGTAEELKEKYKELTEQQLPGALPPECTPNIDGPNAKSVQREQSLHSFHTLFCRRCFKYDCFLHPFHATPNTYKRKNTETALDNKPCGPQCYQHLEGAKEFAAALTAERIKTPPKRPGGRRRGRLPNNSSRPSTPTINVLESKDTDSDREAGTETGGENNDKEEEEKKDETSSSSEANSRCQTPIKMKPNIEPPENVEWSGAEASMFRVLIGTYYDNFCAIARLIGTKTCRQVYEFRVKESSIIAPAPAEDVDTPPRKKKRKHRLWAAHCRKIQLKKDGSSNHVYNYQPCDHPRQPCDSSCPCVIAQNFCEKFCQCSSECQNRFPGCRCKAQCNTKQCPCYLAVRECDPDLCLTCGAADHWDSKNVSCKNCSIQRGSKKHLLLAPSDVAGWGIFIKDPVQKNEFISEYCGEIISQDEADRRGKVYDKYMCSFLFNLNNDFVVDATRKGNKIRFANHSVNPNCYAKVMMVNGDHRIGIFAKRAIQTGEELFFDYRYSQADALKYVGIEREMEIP
Sequence of EZH2 (O75530 whole entry partner): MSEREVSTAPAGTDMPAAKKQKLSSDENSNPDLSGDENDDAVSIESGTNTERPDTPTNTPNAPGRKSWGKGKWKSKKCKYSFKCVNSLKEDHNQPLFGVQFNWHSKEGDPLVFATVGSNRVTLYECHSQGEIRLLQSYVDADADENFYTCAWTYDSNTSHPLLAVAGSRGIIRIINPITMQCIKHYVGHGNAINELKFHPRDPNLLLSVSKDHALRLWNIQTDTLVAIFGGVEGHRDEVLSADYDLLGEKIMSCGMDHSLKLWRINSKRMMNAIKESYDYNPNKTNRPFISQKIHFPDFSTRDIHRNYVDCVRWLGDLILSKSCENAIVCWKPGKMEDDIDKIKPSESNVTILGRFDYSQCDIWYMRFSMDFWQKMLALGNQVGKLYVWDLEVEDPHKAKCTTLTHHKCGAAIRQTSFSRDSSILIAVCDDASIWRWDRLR
Sequence of EZH2 (Q15022 whole entry partner): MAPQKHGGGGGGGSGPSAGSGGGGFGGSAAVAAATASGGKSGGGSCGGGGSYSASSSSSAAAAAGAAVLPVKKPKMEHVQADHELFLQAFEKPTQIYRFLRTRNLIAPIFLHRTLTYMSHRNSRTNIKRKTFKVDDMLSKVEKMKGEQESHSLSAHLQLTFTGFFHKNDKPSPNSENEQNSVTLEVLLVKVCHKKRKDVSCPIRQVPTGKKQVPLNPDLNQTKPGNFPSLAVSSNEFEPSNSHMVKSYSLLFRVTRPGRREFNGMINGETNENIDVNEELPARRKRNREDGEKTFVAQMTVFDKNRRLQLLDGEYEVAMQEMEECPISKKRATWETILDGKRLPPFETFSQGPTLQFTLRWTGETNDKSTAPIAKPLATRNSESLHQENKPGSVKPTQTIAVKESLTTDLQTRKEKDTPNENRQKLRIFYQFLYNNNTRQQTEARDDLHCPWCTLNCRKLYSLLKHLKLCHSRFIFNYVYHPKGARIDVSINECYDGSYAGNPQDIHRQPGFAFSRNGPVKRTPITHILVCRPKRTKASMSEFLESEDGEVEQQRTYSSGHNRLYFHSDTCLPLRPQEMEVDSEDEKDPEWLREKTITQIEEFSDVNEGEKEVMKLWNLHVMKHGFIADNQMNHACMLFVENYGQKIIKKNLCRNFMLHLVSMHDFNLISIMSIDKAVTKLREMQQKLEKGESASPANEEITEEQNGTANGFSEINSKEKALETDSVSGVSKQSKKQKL
Sequence of EZH2 (Q09028 whole entry partner): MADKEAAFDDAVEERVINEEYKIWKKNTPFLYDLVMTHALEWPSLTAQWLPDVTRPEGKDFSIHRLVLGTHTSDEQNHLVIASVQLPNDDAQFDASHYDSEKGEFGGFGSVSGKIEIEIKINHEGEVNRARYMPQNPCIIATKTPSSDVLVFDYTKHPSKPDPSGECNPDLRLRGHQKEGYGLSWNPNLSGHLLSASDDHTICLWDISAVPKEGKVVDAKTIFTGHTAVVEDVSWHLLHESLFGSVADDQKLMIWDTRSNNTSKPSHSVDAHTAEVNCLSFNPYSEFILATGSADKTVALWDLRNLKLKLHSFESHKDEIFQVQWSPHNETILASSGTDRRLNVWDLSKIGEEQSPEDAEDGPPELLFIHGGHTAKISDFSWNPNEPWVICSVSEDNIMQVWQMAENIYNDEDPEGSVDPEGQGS

SMILES	1 μM relative fluorescence intensity	10 μM relative fluorescence intensity	3 μM relative fluorescence intensity
CCN(C(=O)C1CCCC1)c1cc(-c2ccc(N3CCN(CC4CC4)CC3)nc2)cc(C(=O)NCc2c(C)cc(C)[nH]c2=O)c1C [Compound 15, 5-(6-(4-(cyclopropylmethyl)piperazin-1-yl)pyridin-3-yl)-N-((4,6-dimethyl-2-oxo-1,2-dihydropyridin-3-yl)methyl)-3-(N-ethylcyclopentanecarboxamido)-2-methylbenzamide]	262.61	335.61	–
CCN(C(=O)C1CCCC1)c1cc(-c2ccnc(N3CCN(C)CC3)c2)cc(C(=O)NCc2c(C)cc(C)[nH]c2=O)c1C [Compound 17, N-((4,6-dimethyl-2-oxo-1,2-dihydropyridin-3-yl)methyl)-3-(N-ethylcyclopentanecarboxamido)-2-methyl-5-(2-(4-methylpiperazin-1-yl)pyridin-4-yl)benzamide]	172	303	223
CCN(C(=O)C1CCCC1)c1cc(-c2ccc(N3CCN(C(C)C)CC3)nc2)cc(C(=O)NCc2c(C)cc(C)[nH]c2=O)c1C [Compound 18, N-((4,6-dimethyl-2-oxo-1,2-dihydropyridin-3-yl)methyl)-3-(N-ethylcyclopentanecarboxamido)-5-(6-(4-isopropylpiperazin-1-yl)pyridin-3-yl)-2-methylbenzamide]	289	423	356
CCN(C(=O)C1CCCC1)c1cc(-c2ccc(C#N)c(F)c2)cc(C(=O)NCc2c(C)cc(C)[nH]c2=O)c1C [Compound 19, 4′-cyano-N-((4,6-dimethyl-2-oxo-1,2-dihydropyridin-3-yl)methyl)-5-(N-ethylcyclopentanecarboxamido)-3′-fluoro-4-methyl-[1,1′-diphenyl]-3-carboxamide]	189	310	228
CCN1CCN(Cc2ccc(-c3cc(C(=O)NCc4c(C)cc(C)[nH]c4=O)c(C)c(N(CC)C(=O)C4CCCC4)c3)cc2)CC1 [Compound 23, N-((4,6-dimethyl-2-oxo-1,2-dihydropyridin-3-yl)methyl)-5-(N-ethylcyclopentanecarboxamido)-4′-((4-ethylpiperazin-1-yl)methyl)-4-methyl-[1,1′-diphenyl]-3-carboxamide]	290	343	346
CCN(C(=O)C1CCCC1)c1cc(C(N)=O)cc(C(=O)NCc2c(C)cc(C)[nH]c2=O)c1C [Compound 34, N^1-((4,6-dimethyl-2-oxo-1,2-dihydropyridin-3-yl)methyl)-5-(N-ethylcyclopentanecarboxamido)-6-methyl-isophthalamide]	98.36	109.72	–
CCN(C(=O)C1CCCC1)c1cc(-c2ccc(N3CCN(C)CC3)nc2)cc(C(=O)NCc2c(C)cc(C)[nH]c2=O)c1C [Compound 36, N-((4,6-dimethyl-2-oxo-1,2-dihydropyridin-3-yl)methyl)-3-(N-ethylcyclopentanecarboxamido)-2-methyl-5-(6-(4-methylpiperazin-1-yl)pyridin-3-yl)benzamide]	211.26	312.36	–
CCN(C(=O)C1CCCC1)c1cc(-c2ccc(N3CCC(N)CC3)nc2)cc(C(=O)NCc2c(C)cc(C)[nH]c2=O)c1C [Compound 37, 5-(6-(4-aminopiperidin-1-yl)pyridin-3-yl)-N-((4,6-dimethyl-2-oxo-1,2-dihydropyridin-3-yl)methyl)-3-(N-ethylcyclopentanecarboxamido)-2-methylbenzamide]	163.93	345.23	–
CCN(C(=O)C1CCCC1)c1cc(-c2ccc(Oc3ccccc3)cc2)cc(C(=O)NCc2c(C)cc(C)[nH]c2=O)c1C [Compound 41, N-((4,6-dimethyl-2-oxo-1,2-dihydropyridin-3-yl)methyl)-5-(N-ethylcyclopentanecarboxamido)-4-methyl-4′-phenoxy-[1,1′-diphenyl]-3-carboxamide]	156.04	183.38	–

Continued, values first:

1 μM relative fluorescence intensity	10 μM relative fluorescence intensity	3 μM relative fluorescence intensity	SMILES
193	227	213	CCN(C(=O)C1CCCC1)c1cc(-c2ccc(C(=O)N3CCOCC3)cc2)cc(C(=O)NCc2c(C)cc(C)[nH]c2=O)c1C [Compound 20, N-((4,6-dimethyl-2-oxo-1,2-dihydropyridin-3-yl)methyl)-5-(N-ethylcyclopentanecarboxamido)-4-methyl-4′-(morpholin-4-carbonyl)-[1,1′-diphenyl]-3-carboxamide]
170	339	225	CCN(C(=O)C1CCCC1)c1cc(-c2ccc(N3CCOCC3)cc2)cc(C(=O)NCc2c(C)cc(C)[nH]c2=O)c1C [Compound 21, N-((4,6-dimethyl-2-oxo-1,2-dihydropyridin-3-yl)methyl)-5-(N-ethylcyclopentanecarboxamido)-4-methyl-4′-morpholinyl-[1,1′-diphenyl]-3-carboxamide]
171	242	194	CCN(C(=O)C1CCCC1)c1cc(-c2ccc(CC(=O)N3CCOCC3)cc2)cc(C(=O)NCc2c(C)cc(C)[nH]c2=O)c1C [Compound 22, N-((4,6-dimethyl-2-oxo-1,2-dihydropyridin-3-yl)methyl)-5-(N-ethylcyclopentanecarboxamido)-4-methyl-4′-(2-morpholinyl-2-oxoethyl)-[1,1′-diphenyl]-3-carboxamide]
204.86	335.96	–	CCN1CCN(c2ccc(-c3cc(C(=O)NCc4c(C)cc(C)[nH]c4=O)c(C)c(N(CC)C(=O)C4CCCC4)c3)cc2)CC1 [Compound 27, N-((4,6-dimethyl-2-oxo-1,2-dihydropyridin-3-yl)methyl)-5-(N-ethylcyclopentanecarboxamido)-4′-(4-ethylpiperazin-1-yl)-4-methyl-[1,1′-diphenyl]-3-carboxamide]
163.93	345.23	–	CCN(C(=O)C1CCCC1)c1cc(-c2ccc(NS(=O)(=O)C3CC3)cc2)cc(C(=O)NCc2c(C)cc(C)[nH]c2=O)c1C [Compound 28, 4′-(cyclopropanesulfonamide)-N-((4,6-dimethyl-2-oxo-1,2-dihydropyridin-3-yl)methyl)-5-(N-ethylcyclopentanecarboxamido)-4-methyl-[1,1′-diphenyl]-3-carboxamide]
253.44	231.21	–	CCN(C(=O)C1CCCC1)c1cc(-c2ccc(OCCCN3CCOCC3)cc2)cc(C(=O)NCc2c(C)cc(C)[nH]c2=O)c1C [Compound 30, N-((4,6-dimethyl-2-oxo-1,2-dihydropyridin-3-yl)methyl)-5-(N-ethylcyclopentanecarboxamido)-4-methyl-4′-(3-morpholinopropoxy)-[1,1′-diphenyl]-3-carboxamide]
83.82	123.19	–	CCN(C(=O)C1CCCC1)c1cc(-c2ccc(CN3CCNC[C@H]3CO)cc2)cc(C(=O)NCc2c(C)cc(C)[nH]c2=O)c1C [Compound 35]
